Literature values, collected in US20180153879A1, “Solid Dispersion Comprising μ-Opioid Antagonists” (Sandoz AG, priority 2016, published 2018).

Conditions: free base form, exposure to air

In the case of C=CCN1CC[C@]23c4c5ccc(O)c4O[C@H]2[C@@H](OCCOCCOCCOCCOCCOCCOCCOC)CC[C@@]3(O)[C@H]1C5 [naloxegol, (5α,6α)-17-allyl-6-(2,5,8,11,14,17,20-heptaoxadocosan-22-yloxy)-4,5-epoxymorphinan-3,14-diol], the oxidative stability is given as “can undergo oxidative degradation upon exposure to air”.
